Several values for one entry are separate records, joined by “and”; a condition that tells them apart may be missing. Equal entries are not always repeated.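 Tested at 5 concentrations; 48 h exposure; 96-well plates; endpoints linearly interpolated, else capped at highest concentration. At the GI50, growth is halved. TGI denotes the concentration required for complete inhibition of growth.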
What was measured:
Assay in all cases: NCI anticancer screen, dose series, 48 h
[1] = system: 786-0 renal
[2] = system: A498 renal
[3] = system: A549 NSCLC
[4] = system: ACHN renal
[5] = system: BT-549 breast
[6] = system: CAKI-1 renal
[7] = system: CCRF-CEM leukemia
[8] = system: COLO 205 colon
[9] = system: DU-145 prostate
[10] = system: EKVX NSCLC
[11] = system: HCC-2998 colon
[12] = system: HCT-116 colon
[13] = system: HCT-15 colon
[14] = system: HL-60(TB) leukemia
[15] = system: HOP-62 NSCLC
[16] = system: HOP-92 NSCLC
[17] = system: HS 578T breast
[18] = system: HT29 colon
[19] = system: IGROV1 ovarian
[20] = system: K-562 leukemia
[21] = system: KM12 colon
[22] = system: LOX IMVI melanoma
[23] = system: M14 melanoma
[24] = system: MALME-3M melanoma
[25] = system: MCF7 breast
[26] = system: MDA-MB-231 breast
[27] = system: MDA-MB-435
[28] = system: NCI-H226 lung
[29] = system: NCI-H23 lung
[30] = system: NCI-H460 lung
[31] = system: NCI-H522 lung
[32] = system: NCI/ADR-RES ovarian
[33] = system: OVCAR-3 ovarian
[34] = system: OVCAR-4 ovarian
[35] = system: OVCAR-5 ovarian
[36] = system: OVCAR-8 ovarian
[37] = system: PC-3 prostate
[38] = system: RPMI-8226 leukemia
[39] = system: RXF 393 renal
[40] = system: SF-268 CNS
[41] = system: SF-295 CNS
[42] = system: SF-539 CNS
[43] = system: SK-MEL-2 melanoma
[44] = system: SK-MEL-28 melanoma
[45] = system: SK-MEL-5 melanoma
[46] = system: SK-OV-3 ovarian
[47] = system: SN12C renal
[48] = system: SNB-19 CNS
[49] = system: SNB-75 CNS
[50] = system: SR leukemia
[51] = system: SW-620 colon
[52] = system: T-47D breast
[53] = system: TK-10 renal
[54] = system: U251 CNS
[55] = system: UACC-257 melanoma
[56] = system: UACC-62 melanoma
[57] = system: UO-31 renal
[58] = system: MOLT-4 leukemia

## COc1ccc(Sc2[nH]c(C(C)=O)c3ccccc23)cc1
[1]
  GI50: 16.5 µM
  TGI: 34.8 µM
[2]
  GI50: 265 nM
  TGI: 0.848 µM
[3]
  GI50: 4 µM
  TGI: 51.3 µM
[4]
  GI50: 16.5 µM
  TGI: 49.6 µM
[5]
  GI50: 3.13 µM
  TGI: 17.4 µM
[6]
  GI50: 2860 nM
  TGI: 24 µM
[7]
  GI50: 14.3 µM
  TGI: 40 µM
[8]
  GI50: 174 nM
  TGI: 0.398 µM
[9]
  GI50: 16 µM
  TGI: 36.8 µM
[10]
  GI50: 8.13 µM
  TGI: 26 µM
[11]
  GI50: 11.9 µM
  TGI: 24.4 µM
[12]
  GI50: 12 µM
  TGI: 24.3 µM
[13]
  GI50: 11.5 µM
  TGI: 31 µM
[14]
  GI50: 15 µM
  TGI: 33.4 µM
[15]
  GI50: 12.7 µM
  TGI: 25.3 µM
[16]
  GI50: 2400 nM
  TGI: 18.1 µM
[17]
  GI50: 10.9 µM
  TGI: 32.6 µM
[18]
  GI50: 15.4 µM
  TGI: 30.7 µM
[19]
  GI50: 11.8 µM
  TGI: 43 µM
[20]
  GI50: 2650 nM
  TGI: 14.7 µM
[21]
  GI50: 6.49 µM
  TGI: 19.7 µM
[22]
  GI50: 11800 nM
  TGI: 24.4 µM
[23]
  GI50: 11.7 µM
  TGI: 25.1 µM
[24]
  GI50: 17.8 µM
  TGI: 51.3 µM
[25]
  GI50: 12.2 µM
  TGI: 24.6 µM
[26]
  GI50: 11.4 µM
  TGI: 29.5 µM
[27]
  GI50: 2760 nM
  TGI: 13 µM
[28]
  GI50: 5.66 µM
  TGI: 27.6 µM
[29]
  GI50: 14.6 µM
  TGI: 41.5 µM
[30]
  GI50: 7.41 µM
  TGI: 20.6 µM
[31]
  GI50: 10.2 µM
  TGI: 36.1 µM
[32]
  GI50: 11.8 µM
  TGI: 31.8 µM
[33]
  GI50: 12.2 µM
  TGI: 24.6 µM
[34]
  GI50: 13.3 µM
  TGI: 32 µM
[35]
  GI50: 17.3 µM
  TGI: 53.1 µM
[36]
  GI50: 16.4 µM
  TGI: 36.8 µM
[37]
  GI50: 11.1 µM
  TGI: 28.4 µM
[38]
  GI50: 10.9 µM
  TGI: 33.4 µM
[39]
  GI50: 13.6 µM
  TGI: 39 µM
[40]
  GI50: 12.9 µM
  TGI: 27.1 µM
[41]
  GI50: 11.6 µM
  TGI: 26.7 µM
[42]
  GI50: 14.5 µM
  TGI: 27.6 µM
[43]
  GI50: 13 µM
  TGI: 31.2 µM
[44]
  GI50: 13.5 µM
  TGI: 26.3 µM
[45]
  GI50: 12.5 µM
  TGI: 24.9 µM
[46]
  GI50: 1790 nM
  TGI: 10.5 µM
[47]
  GI50: 11 µM
  TGI: 24.7 µM
[48]
  GI50: 11.6 µM
  TGI: 31.2 µM
[49]
  GI50: 10.7 µM
  TGI: 51.3 µM
[50]
  GI50: 1350 nM
  TGI: 15.2 µM
[51]
  GI50: 12.5 µM
  TGI: 26.8 µM
[52]
  GI50: 8.41 µM
  TGI: 36 µM
[53]
  GI50: 15 µM
  TGI: 37.5 µM
[54]
  GI50: 11.9 µM
  TGI: 25.1 µM
[55]
  GI50: 15.3 µM
  TGI: 33.3 µM
[56]
  GI50: 10.3 µM
  TGI: 22 µM
[57]
  GI50: 5.84 µM
  TGI: 23.4 µM

## C[N+](C)(C)CC1CCCc2ccccc2C1=O (configuration not stated)
[1]
  GI50: 8.46 µM
  TGI: 6.44 µM and 21.7 µM
[2]
  TGI: 27.6 µM
[3]
  GI50: 18.6 µM
  TGI: 5.72 µM and 36.6 µM
[4]
  TGI: 9.71 µM
[5]
  TGI: 33.4 µM
[6]
  GI50: 2060 nM
  TGI: 6.71 µM and 5.04 µM
[7]
  GI50: 0.42 µM
  TGI: 5.77 µM and 1.11 µM
[8]
  TGI: 42.9 µM
[9]
  TGI: > 56.3 µM
[10]
  TGI: 14.5 µM
[11]
  TGI: 45 µM
[12]
  GI50: 4.27 µM
  TGI: 3.27 µM and 8.46 µM
[13]
  GI50: 2.75 µM
  TGI: 8.43 µM
[14]
  GI50: 1.16 µM
  TGI: 5.13 µM and 3.01 µM
[15]
  TGI: 34.3 µM
[16]
  TGI: 26.7 µM
[17]
  TGI: 85.8 µM
[18]
  GI50: 7.65 µM
  TGI: 30.7 µM
[19]
  TGI: 31.7 µM
[20]
  GI50: 303 nM
  TGI: 6.72 µM and 1.02 µM
[21]
  GI50: 5.1 µM
  TGI: 24.8 µM
[22]
  GI50: 1930 nM and 2230 nM
  TGI: 4.78 µM and 5.93 µM
[23]
  GI50: 7.85 µM
  TGI: 9.49 µM and 19.7 µM
[24]
  TGI: 12 µM
[25]
  GI50: 0.511 µM
  TGI: 5.29 µM and 2.23 µM
[26]
  TGI: 30.6 µM
[27]
  TGI: 11 µM
[58]
  GI50: 388 nM
  TGI: 7.79 µM and 1.06 µM
[28]
  TGI: 42.2 µM
[29]
  TGI: 35 µM
[30]
  TGI: 49.4 µM
[31]
  GI50: 0.861 µM
  TGI: 3.23 µM and 2.36 µM
[32]
  GI50: 22.4 µM
  TGI: 54 µM
[33]
  TGI: 17.7 µM
[34]
  GI50: 15.7 µM
  TGI: 41.2 µM
[35]
  TGI: 28.8 µM
[36]
  GI50: 6.14 µM
  TGI: 12.4 µM
[37]
  TGI: 30.8 µM
[39]
  GI50: 15.8 µM
  TGI: 30.1 µM
[40]
  TGI: 53.9 µM
[41]
  TGI: > 55 µM
[42]
  GI50: 8.75 µM
  TGI: 31.7 µM
[43]
  TGI: 27.2 µM
[44]
  TGI: 34.5 µM
[45]
  TGI: 15.5 µM
[46]
  TGI: 34.5 µM
[47]
  GI50: 18.9 µM
  TGI: 38.5 µM
[48]
  TGI: 85.6 µM
[49]
  TGI: 34.3 µM
[50]
  TGI: 8.08 µM
[51]
  TGI: 3.67 µM and 3.92 µM
[52]
  GI50: 19.1 µM
[53]
  TGI: 36.8 µM
[54]
  TGI: 12.4 µM
[55]
  TGI: 32.4 µM
[56]
  TGI: 26.5 µM
[57]
  TGI: 30.7 µM

Reference: PubChem BioAssay (NCI)
